Experiments:
Type in all cases: biochemical
KRAS WT = molecular target: T1, KRAS WT (Homo sapiens, UniProt P01116); test: HTRF KRAS-SOS1 interaction assay, wildtype KRAS; conditions: binned ≤2 μM / >2 μM, read-out: Inhibition of KRAS WT (IC50)
T1 construct: made in house; host or cells: E. coli, e.g. BL21 (DE3)
Method in brief: (§1)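 Read-out: HTRF ratio 665/620 nm after ≥10 min incubation of compound with GST-KRAS/anti-GST-Eu and His-hSOS1/anti-6His-XL665. Duplicate dose series, 10 μM down to 0.01 μM. Buffer HEPES pH 7.4, NaCl, DTT, BSA, Igepal.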

KRAS G12S = molecular target: T2, KRAS G12S (Homo sapiens, UniProt P01116, G12S); test: HTRF KRAS-SOS1 interaction assay, KRAS G12S; conditions: binned ≤2 μM / >2 μM, read-out: Inhibition of KRAS G12S (IC50)
T2 construct: made in house; host or cells: E. coli, e.g. BL21 (DE3)
Method in brief: as §1

KRAS G12D = molecular target: T3, KRAS G12D (Homo sapiens, UniProt P01116, G12D); test: HTRF KRAS-SOS1 interaction assay, KRAS G12D; conditions: binned ≤2 μM / >2 μM, read-out: Inhibition of KRAS G12D (IC50)
T3 construct: made in house; host or cells: E. coli, e.g. BL21 (DE3)
Method in brief: as §1

KRAS G12V = molecular target: T4, KRAS G12V (Homo sapiens, UniProt P01116, G12V); test: HTRF KRAS-SOS1 interaction assay, KRAS G12V; conditions: binned ≤2 μM / >2 μM, read-out: Inhibition of KRAS G12V (IC50)
T4 construct: made in house; host or cells: E. coli, e.g. BL21 (DE3)
Method in brief: as §1

Measured: IC50

T2 sequence (P01116 1-188 isoform P01116-2 G12S): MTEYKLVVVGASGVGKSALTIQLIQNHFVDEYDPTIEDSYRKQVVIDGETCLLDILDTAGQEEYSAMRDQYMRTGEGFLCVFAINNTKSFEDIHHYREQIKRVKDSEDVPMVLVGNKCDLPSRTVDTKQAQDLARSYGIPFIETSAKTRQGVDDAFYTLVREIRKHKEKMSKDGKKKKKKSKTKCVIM
T3 sequence (P01116 1-188 isoform P01116-2 G12D): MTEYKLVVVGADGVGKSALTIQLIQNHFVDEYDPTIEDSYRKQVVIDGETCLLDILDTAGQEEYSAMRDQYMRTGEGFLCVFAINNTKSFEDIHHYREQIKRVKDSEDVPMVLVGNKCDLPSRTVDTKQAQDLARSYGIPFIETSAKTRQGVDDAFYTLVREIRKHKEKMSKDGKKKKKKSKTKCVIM
T1 sequence (P01116 1-188 isoform P01116-2): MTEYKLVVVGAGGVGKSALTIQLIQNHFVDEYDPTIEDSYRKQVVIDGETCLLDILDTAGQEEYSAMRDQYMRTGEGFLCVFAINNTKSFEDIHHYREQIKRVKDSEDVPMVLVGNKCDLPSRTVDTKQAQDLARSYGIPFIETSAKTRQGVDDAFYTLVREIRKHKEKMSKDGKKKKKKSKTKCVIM
T4 sequence (P01116 1-188 isoform P01116-2 G12V): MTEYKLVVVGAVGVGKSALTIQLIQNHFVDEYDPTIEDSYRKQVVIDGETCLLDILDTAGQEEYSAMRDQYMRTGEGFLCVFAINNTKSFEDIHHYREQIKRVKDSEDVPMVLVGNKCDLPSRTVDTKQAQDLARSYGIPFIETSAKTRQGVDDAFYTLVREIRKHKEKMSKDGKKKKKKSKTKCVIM

N#Cc1c(N)sc2c(F)ccc(-c3c(Cl)c4c5c(nc(OC[C@@]67CCCN6C[C@H](F)C7)nc5c3F)N([C@H](C/C=C/C(F)(F)F)c3cccnc3N)CCO4)c12 [Compound 733, 2-amino-4-(4-((R,E)-1-(2-aminopyridin-3-yl)-5,5,5-trifluoropent-3-en-1-yl)-8-chloro-10-fluoro-2-(((2R,7aS)-2-fluorotetrahydro-1H-pyrrolizin-7a(5H)-yl)methoxy)-5,6-dihydro-4H-[1,4]oxazepino[5,6,7-de]quinazolin-9-yl)-7-fluorobenzo[b]thiophene-3-carbonitrile]
≤ 2 µM: all assays above

Cc1c(F)c(N)cc(-c2nc3c4c(nc(OC[C@@H]5CCCN5C)nc4c2F)N([C@H](C)c2cccnc2N)CCO3)c1C(F)(F)F (single isomer, unassigned) [Compound 695]
≤ 2 µM: all assays above

C[C@H](c1cccnc1N)N1CCOc2c(Cl)c(-c3ccc(F)c4sc(N)c(C#N)c34)c(F)c3nc(OC[C@@]45CCCN4CC(=NOCC(F)(F)F)C5)nc1c23 (mixture of isomers) [Compound 917, 2-amino-4-(4-((R)-1-(2-aminopyridin-3-yl)ethyl)-8-chloro-10-fluoro-2-(((S)-2-((2,2,2-trifluoroethoxy)imino)tetrahydro-1H-pyrrolizin-7a(5H)-yl)methoxy)-5,6-dihydro-4H-[1,4]oxazepino[5,6,7-de]quinazolin-9-yl)-7-fluorobenzo[b]thiophene-3-carbonitrile]
≤ 2 µM: all assays above

Cc1c(F)c(N)cc(-c2nc3c4c(nc(O[C@@H](C)C5CCCN5C)nc4c2F)N([C@H](C)c2cccnc2N)CCO3)c1C(F)(F)F (single isomer, unassigned) [Compound 748]
≤ 2 µM: all assays above

COC[C@H](c1cccnc1N)N1CCOc2c(C(F)(F)F)c(-c3ccc(F)c4sc(N)c(C#N)c34)c(F)c3nc(OC[C@@]45CCCN4C[C@H](F)C5)nc1c23 [Compound 684, 2-amino-4-(4-((S)-1-(2-aminopyridin-3-yl)-2-methoxyethyl)-10-fluoro-2-(((2R,7aS)-2-fluorotetrahydro-1H-pyrrolizin-7a(5H)-yl)methoxy)-8-(trifluoromethyl)-5,6-dihydro-4H-[1,4]oxazepino[5,6,7-de]quinazolin-9-yl)-7-fluorobenzo[b]thiophene-3-carbonitrile]
≤ 2 µM: all assays above

N#Cc1c(N)sc2c(F)ccc(-c3c(Cl)c4c5c(nc(OC[C@@]67CCCN6C[C@H](F)C7)nc5c3F)N(Cc3cccnc3N)C3COCC3CO4)c12 (mixture of isomers) [Compound 868, 2-amino-4-(12-((2-aminopyridin-3-yl)methyl)-6-chloro-4-fluoro-2-(((2R,7aS)-2-fluorotetrahydro-1H-pyrrolizin-7a (5H)-yl)methoxy)-8a,9,11a, 12-tetrahydro-8H, 11H-furo[3′,4′: 6,7][1,5]oxazocino[4,3,2-de]quinazolin-5-yl)-7-fluorobenzo[b]thiophene-3-carbonitrile]
≤ 2 µM: all assays above

Cc1cnc(N)c([C@@H](C)N2CCOc3c(C(F)(F)F)c(-c4ccc(F)c5sc(N)c(C#N)c45)c(F)c4nc(OC[C@@]56CCCN5C[C@H](F)C6)nc2c34)c1 (single isomer, unassigned) [Compound 796]
≤ 2 µM: all assays above

C[C@H](c1cc(Cl)cnc1N)N1CCOc2c(C(F)(F)F)c(-c3ccc(F)c4sc(N)c(C#N)c34)c(F)c3nc(OC[C@@]45CCCN4C[C@@]4(CC4(F)F)C5)nc1c23 [Compound 713, 2-amino-4-(4-((R)-1-(2-amino-5-chloropyridin-3-yl)ethyl)-2-(((1S,7a′S)-2,2-difluorodihydro-1′H,3′H-spiro[cyclopropane-1,2′-pyrrolizin]-7a′(5′H)-yl)methoxy)-10-fluoro-8-(trifluoromethyl)-5,6-dihydro-4H-[1,4]oxazepino[5,6,7-de]quinazolin-9-yl)-7-fluorobenzo[b]thiophene-3-carbonitrile]
≤ 2 µM: all assays above

C[C@H](c1ccc(C#N)nc1N)N1CCOc2c(Cl)c(-c3ccc(F)c4sc(N)c(C#N)c34)c(F)c3nc(OC[C@@]45CCCN4C[C@H](F)C5)nc1c23 [Compound 851, 6-amino-5-((1R)-1-(9-(2-amino-3-cyano-7-fluorobenzo[b]thiophen-4-yl)-8-chloro-10-fluoro-2-(((2R,7aS)-2-fluorotetrahydro-1H-pyrrolizin-7a(5H)-yl)methoxy)-5,6-dihydro-4H-[1,4]oxazepino[5,6,7-de]quinazolin-4-yl)ethyl)picolinonitrile]
≤ 2 µM: all assays above

C[C@H](c1cncnc1N)N1CCOc2c(C(F)(F)F)c(-c3ccc(F)c4sc(N)c(C#N)c34)c(F)c3nc(OC[C@@]45CCCN4C[C@H](F)C5)nc1c23 (single isomer, unassigned) [Compound 777]
≤ 2 µM: all assays above

C[C@H](c1cc(Cl)cnc1N)N1CCOc2c(C(F)(F)F)c(-c3ccc(F)c4sc(N)c(C#N)c34)c(F)c3nc(OC[C@@]45CCCN4C[C@H](F)C5)nc1c23 (single isomer, unassigned) [Compound 766]
≤ 2 µM: all assays above

C=CC[C@H](c1cccnc1N)N1C[C@H](C)Oc2nc(-c3cc(N)c(F)c(C)c3C(F)(F)F)c(F)c3nc(OC[C@@]45CCCN4C[C@H](F)C5)nc1c23 (single isomer, unassigned) [Compound 746]
≤ 2 µM: all assays above

C[C@H](c1cccnc1N)N1CCOc2c(C(F)(F)F)c(-c3ccc(F)c4sc(N)c(C#N)c34)c(F)c3nc(OCC4(CN5CC[C@@H](F)C5)CC4)nc1c23 [Compound 698, 2-amino-4-(4-((R)-1-(2-aminopyridin-3-yl)ethyl)-10-fluoro-2-((1-(((R)-3-fluoropyrrolidin-1-yl)methyl)cyclopropyl)methoxy)-8-(trifluoromethyl)-5,6-dihydro-4H-[1,4]oxazepino[5,6,7-de]quinazolin-9-yl)-7-fluorobenzo[b]thiophene-3-carbonitrile]
≤ 2 µM: all assays above

C[C@H](c1cc(F)cnc1N)N1CCOc2c(C(F)(F)F)c(-c3ccc(F)c4sc(N)c(C#N)c34)c(F)c3nc(OC[C@@]45CCCN4C[C@@]4(CC4(F)F)C5)nc1c23 [Compound 878, 2-amino-4-(4-((R)-1-(2-amino-5-fluoropyridin-3-yl)ethyl)-2-(((1S,7a′S)-2,2-difluorodihydro-1′H,3′H-spiro[cyclopropane-1,2′-pyrrolizin]-7a′(5′H)-yl)methoxy)-10-fluoro-8-(trifluoromethyl)-5,6-dihydro-4H-[1,4]oxazepino[5,6,7-de]quinazolin-9-yl)-7-fluorobenzo[b]thiophene-3-carbonitrile]
≤ 2 µM: all assays above
